Results from US20190282600A1, “COMBINATION THERAPIES TARGETING TERT DEPENDENCY FOR CANCER THERAPY” (The Wistar Institute of Anatomy and Biology, priority 2018, published 2019).

Experiments:
[1] = tested on: detoxifying enzymes SOD2, GPX1 and UCP2; test: mRNA levels of antioxidant enzymes by qRT-PCR; format: cell-based, Human; conditions: NRAS mutant melanoma cells, 1 μM 6-thio-dG for 7 days
Protocol: FIGS. 3a to 3g provides graphs showing that telomere dysfunction enhances oxidative stress leading to upregulation of an antioxidant program. […] Mitochondrial superoxide production was measured by MitoSox Red fluorescence (FIGS. 3c, and 3d) and expressed as fluorescence relative to vector or DMSO controls. […] FIG. 3f provides a bar graph showing that SOD2 was silenced using shRNA. Transduced M93-047 cells were treated with DMSO or 1 μM of 6-thio-dG and cell death was assessed by Annexin V/PI straining. As presented in FIG. 3g, M93-047 cells were transduced with a SOD2 lentiviral construct or empty vector control (pLX304). Transduced cells were treated with increasing doses (1, 2.5 and 5 μM) of 6-thio-dG for 7 days and cell death was assessed. Data represent average from three independent experiments ±SEM. *p<0.05; **p<0.01; ***p<0.005 in unpaired Student's t-test.
Total RNA (1 μg) was reverse transcribed using Maxima First-Strand cDNA synthesis kit (Thermo Scientific, Waltham, Mass.). Fast SYBR Green Master Mix (Applied Biosystems, Waltham, Mass.) was used with 100 ng cDNA template and 250 nM primers for the evaluation of target gene expression. Amplification was performed in triplicate using ABI PRISM 7500 Fast RT PCR System (Applied Biosystems, Waltham, Mass.) and expression of mRNA was assessed using the […].

[2] = mice; cited from earlier work
[3] = tested on: NRAS mutant melanoma cells; test: Global DNA damage, γH2AX staining by flow cytometry; format: cell-based, Human; conditions: 1 μM 6-thio-dG for 7 days
Protocol: FIGS. 2a to 2c show NRAS^mut melanoma cells (FIG. 2a), BRAF-V600E/NRAS mutant cells derived from melanoma patients resistant to BRAF/MEK inhibitors (FIG. 2b), or non-transformed melanocytes and fibroblasts (FIG. 2c) were treated with 6-thio-dG for 7 days. Cell viability was measured by Alamar Blue assay and calculated relative to DMSO-treated cells. […] Cell death was assessed by PSVUe staining. Percent of apoptotic cells is shown. […] Mean TRF length expressed as kilobase pairs is indicated at the bottom. […] FIG. 2g provides a bar graph showing that DNA damage was assessed by γH2AX staining. Data represent average from three independent experiments ±SEM. *p<0.05; **p<0.01; ***p<0.005 in unpaired Student's t-test. As presented in FIG. 2h, mice bearing established WM3000 or M93-047 NRAS^mut tumors were treated with vehicle control or 6-thio-dG (2.5 mg/kg i.p; q.d). Tumor volume was measured and average tumor volume (n=4) ±SEM was plotted vs. time.
For assessment of global DNA damage cells were fixed and permeabilized with BD CytoFix/Perm reagent following the manufacturer's instructions and incubated with γH2AX antibody (Cell Signaling Technology, Danvers, Mass.) for 1 h at room temperature followed by 1 h incubation with Alexa-647 anti-Rabbit secondary antibody. Mean fluorescence staining was quantified by flow cytometry. […]

[4] = tested on: NRAS mutant melanoma cells; test: Telomere dysfunction-induced foci (TIF) assay, IF-FISH; format: cell-based, Human; conditions: 6-thio-dG for 7 days
Protocol: NRAS mutant melanoma cells WM3000 were transduced with TERT shRNA and treated with NAC (mM) for 7 days. […] Representative images are shown. (scale bar=10 μm). Quantification of TIF positive cells is plotted in FIG. 13b. Cells were scored as TIF positive when three or more g-H2AX foci (green) were co-localizing with telomere foci (red). Data represent average of thirteen fields imaged +/−SD.
NRAS^mut melanoma cells were treated with 6-thio-dG for 6, 12 or 18 days. As presented in FIG. 15a, relative cell number was assessed by Crystal Violet assay and calculated relative to DMSO-treated cells. Data represent average of three independent experiments +/−SD. […] NRAS^mut cells were treated with 6-thio-dG for 7 days and telomere induced foci (TIF) was determined by indirect immunofluorescence combined with fluorescence in situ hybridization (FISH) (FIG. 15c). […] Quantification of TIF assay is plotted in FIG. 15d. Cells were scored as TIF positive when four or more γ-H2AX foci (green, center row of FIG. 15c labelled as γH2AX) were co-localizing with telomere foci (red, top row of FIG. 15c labelled as Telomeres). […] P values were calculated by unpaired Student's t-test.
For TIF analysis, indirect immunofluorescence (IF) combined with fluorescence in situ hybridization (FISH) was performed as previously described with some modifications. […] TIF were quantified from at least three independent experiments.

With `Nc1nc2c(ncn2[C@H]2C[C@H](O)[C@@H](CO)O2)c(=S)[nH]1` [6-thio-dG, 6-thio-2′-deoxyguanosine] the “GPX1 mRNA levels” value [1] was “upregulation”, the “SOD2 mRNA levels” value [1] was “upregulation” and the “UCP2 mRNA levels” value [1] was “upregulation”. For the same compound, the “effect on alanine aminotransferase (ALT)” value [2] was “no significant effects”, the “effect on aspartate aminotransferase (AST)” value [2] was “no significant effects” and the “effect on creatinine levels” value [2] was “no significant effects”. For the same compound, the “effect on red blood cells” value [2] was “no significant effects”, the “effect on white blood cells” value [2] was “no significant effects” and the γH2AX [3] was “increased levels”. For the same compound, the TIFs [4] was “increased levels”.
